From PubChem BioAssay AID1419 (Emory University Molecular Libraries Screening Center, 2008)
Activity calls are given as the source filed them. How the calls were made is not given here.

Test: EBV protein-peptide binding inhibitors, dose response, biochemical, fluorescence polarization (AID 1419)
Details: cell-free protein-peptide binding, 2 h; for fold change: measured here: P channel fold over control, at 54 µM

| SMILES | IC50 | fold change |
| --- | --- | --- |
| CC(=O)Nc1ccc2nc3c(=O)n(C)c(=O)n(C)c3nc2c1 | 1 µM | 4.35 |
| Cc1cc[n+](-c2[nH]c(=O)sc2/C=N/NC([S-])=Nc2ccccc2)cc1 | > 54 µM (inactive) | 1.42 |
| Cc1cccc(NC(=O)CSc2nnnn2C)n1 | > 54 µM (inactive) | 1.02 |
| N#C/C(=C\C1=C(N2CCOCC2)C(=C\c2ccccc2)/CC1)C(=O)Nc1ccccc1F | 1.23 µM | 2.94 |
| CCn1nc(-c2ccccc2)nc2c(=O)n(C)c(=O)nc1-2 | 4.3 µM | 4.56 |
| CN(C)c1ccc(/C=C2\SC(=O)N(CC(O)Cn3c4ccccc4c4ccccc43)C2=O)cc1 (stereo not drawn) | 2.46 µM | 10.3 |
| O=C(C1=NN(c2ccccc2)C2C(=O)N(c3ccccc3Cl)C(=O)C12)c1ccccc1 (stereo not drawn) | 6.16 µM | 8.43 |
| O=C(c1nc2n(n1)C(c1ccc(Cl)cc1)C=C(c1ccccc1)N2)N1CCOCC1 (stereo not drawn) | 2.27 µM | 5.19 |
| Cn1c(O)c(C=Nc2ccc(N3CCOCC3)cc2)c(=O)n(C)c1=S | 18.9 µM | 6.36 |
| O=[N+]([O-])c1ccc(-c2cn(-c3ccc(Cl)cc3)c(=S)[nH]2)cc1 | > 54 µM (inactive) | 0.93 |
| Cc1nn(C)cc1N1C(=O)c2cccc3c(N)ccc(c23)C1=O | < 0.42 µM | 109 |
| O=C(NC(NC(=S)Nc1ccc(Cl)cc1Cl)C(Cl)(Cl)Cl)c1cccc([N+](=O)[O-])c1 (stereo not drawn) | > 54 µM (inactive) | 0.953 |
| CCCCn1nc(-c2ccccc2)c2nc3ccccc3nc21 | 3.13 µM | 22.6 |
| CCCCCn1c(N)c(-c2nc3ccccc3o2)c2c([N+](=O)[O-])nn(C)c(=O)c21 | 48.1 µM (inactive) | 0.443 |
| Cc1cccc(N=Nc2c(O)[nH]c3ccc(F)cc23)c1 | 2.03 µM | 12 |
| CCN1CCN(CC(=O)N2N=C(c3cccs3)CC2c2ccc(OC)c(OC)c2)C(=O)C1=O (stereo not drawn) | > 54 µM (inactive) | 1.25 |
| CC[C@@H](CO)NC(=O)[C@@H]1C=C2c3cccc4c3c(cn4C)C[C@H]2N(C)C1 | > 54 µM (inactive) | 1.44 |
| Cc1ccc(-c2cc(-c3ccco3)c(C#N)c(=O)[nH]2)cc1 | > 54 µM (inactive) | 1.46 |
| Cc1ccc(C)c(S(=O)(=O)C(C#N)c2nc3ccccc3nc2N2CCCC2)c1 (stereo not drawn) | 4.06 µM | 1.67 |
| Cc1ccc(-n2cccc2/C=C2\C(=N)N3N=C(c4ccco4)SC3=NC2=O)cc1 | > 54 µM (inactive) | 1.17 |

| SMILES | IC50 | fold change |
| --- | --- | --- |
| O=C(COC(=O)c1c2c(nc3ccccc13)/C(=C/c1ccco1)CC2)NC1CCCC1 | > 54 µM (inactive) | 2.02 |
| COc1ccc(C2C(C(=O)c3cccs3)=C(O)C(=O)N2c2nnc(C)s2)cc1OC (stereo not drawn) | 3.11 µM | 10.8 |
| CC(=O)N/N=C/c1cc(C(C)C)cc(/C=N/NC(C)=O)c1O | 2.84 µM | 4.18 |
| O=c1[nH]c2ccc(N=Cc3c(O)ccc4cc(Br)ccc34)cc2[nH]1 | 0.97 µM | 7.85 |
| CCCCn1c(N)c(NCCC(C)C)c(=O)[nH]c1=O | 24.4 µM | 1.91 |
| Cc1nn(-c2ccccc2)c2c1C(c1ccccc1)C(C#N)=C(N)O2 (stereo not drawn) | > 54 µM (inactive) | 1.01 |
| Nn1c(SCC(=O)NC(=O)NCc2ccco2)nnc1-c1ccc(OC(F)F)cc1 | 31.1 µM (inactive) | 1.09 |
| CCN(CC)c1ccc2cc(-c3nc(-c4ccc(OC)cc4)cs3)c(=O)oc2c1 | < 0.42 µM | 58 |
| CCOC(=O)C1=NNC(C(=O)c2ccc(Cl)cc2)C1c1ccc(OC)cc1 (stereo not drawn) | > 54 µM (inactive) | 0.933 |
| CCCCN1C(=O)C2Cc3c([nH]c4ccccc34)CN2C1=S (stereo not drawn) | 2.73 µM | 5.04 |
| CN1C(=O)/C(=C2\SC(=S)N(CCCCCC(=O)O)C2=O)c2ccccc21 | 52.1 µM (inactive) | 1.07 |
| CC(C)(O)[C@H]1O[C@H]2CC[C@@]3(C)[C@@](O)(CC[C@H]4Cc5c([nH]c6ccccc56)[C@@]43C)C2=CC1=O | 2.03 µM | 3.36 |
| CCOc1cc(Br)c(Br)c(C=Nc2ccc(NC(C)=O)cc2)c1O | 1.93 µM | 8.05 |
| COC(=O)c1ccc2c(c1)SC1=C(CCCC1=O)N2 | 1.44 µM | 3.08 |
| Cc1ccc(NC2=Nc3ccccc3N3C2=Nc2c(c(C)nn2-c2ccccc2)C3c2ccc(O)c(O)c2)cc1 (stereo not drawn) | 3.36 µM | 2.84 |
| Clc1ccc(OCc2nnc(-c3ccccc3Br)o2)c(Cl)c1 | > 54 µM (inactive) | 1 |
| CCSc1nc2sc3c(c2c(=O)[nH]1)CCCC3 | > 54 µM (inactive) | 1.05 |
| O=C(Nc1ccc(Cl)c(Cl)c1)Nc1nnc(-c2ccncc2)s1 | 2.54 µM | 1.23 |
| CCOc1ccc(NC(=O)c2cc3c(C)nc4ccccc4c3o2)cc1 | > 54 µM (inactive) | 0.947 |
| CCCC(=O)NC(Oc1ccc(C(C)=O)cc1)C(Cl)(Cl)Cl (stereo not drawn) | > 54 µM (inactive) | 0.993 |

| SMILES | IC50 | fold change |
| --- | --- | --- |
| Cc1ccc(S(=O)(=O)C(C#N)c2nc3ccccc3nc2N2CCCC2)cc1 (stereo not drawn) | > 54 µM (inactive) | 1.67 |
| C1=C(c2ccc(-c3ccccc3)cc2)Nc2ncnn2C1c1ccco1 (stereo not drawn) | < 0.42 µM | 15.5 |
| CN(C)c1cccc(C(=O)OCc2cc(=O)oc3cc(O)ccc23)c1 | > 54 µM (inactive) | 1.01 |
| CN1CC=C2C(C#N)=C(N)C(C#N)(C#N)[C@H](c3ccoc3)[C@H]2C1 | > 54 µM (inactive) | 1.96 |
| CCn1c(CSc2n[nH]c(N)n2)nc2cc(C(=O)O)ccc21 | 4.18 µM | 5.1 |
| N#C/C(=C\C1=C(N2CCOCC2)C(=C\c2ccc(Cl)cc2)/CC1)C(=O)Nc1ccccc1F | 3.43 µM | 4.49 |
| CC(C)OC(=O)c1c2c(n3ccccc13)C(=O)c1ccccc1C2=O | 3.85 µM | 2.93 |
| O=c1[nH]c(=O)n(Cc2ccccc2)c(O)c1/C=C1\C=Nc2ccccc21 | 2.18 µM | 6.67 |
| Nc1ccc2c3c(cccc13)C(=O)N(c1ccccc1)C2=O | < 0.42 µM | 200 |
| CCn1cc(C(=O)NCc2ccccn2)c(=O)c2cc(S(=O)(=O)N3CCCCC3)ccc21 | 0.74 µM | 4.52 |
| CCn1c(CSc2nnc3ccccn23)nc2cc(C(=O)O)ccc21 | 4.04 µM | 1.93 |
| O=C(ONc1ccc(N=NC(=O)c2ccccc2O)cc1)c1ccccc1 | > 54 µM (inactive) | 1.09 |
| COc1ccc(N=Cc2cc(Cc3ccccc3Cl)cc([N+](=O)[O-])c2O)cc1OC | 13.8 µM | 2.41 |
| O=C(CSc1nnc(SCc2ccccc2)s1)N/N=C/C=C\c1ccco1 | > 54 µM (inactive) | 1.04 |
| Cc1c(O)c2c3c(cccc3c1O)C(=O)N(c1ccccc1)C2=O | 1.41 µM | 7.05 |
| CN1CCN(C2=Nc3c(Cl)cc(Cl)c4cccc2c34)CC1 | 9.23 µM | 3.09 |
| COc1cc(CCC(=O)N2CCN(c3ncccn3)CC2)cc(OC)c1OC | > 54 µM (inactive) | 1.05 |
| COc1ccc2nc(N3CCCC(O)C3)c(C#N)cc2c1 (stereo not drawn) | 14.6 µM | 2.78 |
| O=C(CCN1CCN(c2ccccc2)CC1)N/N=C/c1ccc(O)c(O)c1O | > 54 µM (inactive) | 1.01 |
